Assay results reported in patent US12612407B2, “Imidazo[2,1-f][1,2,4]triazin-4-amine derivatives as TLR7 agonist” (BEIGENE, LTD., priority 2020, dated 2026).

Target: T1, human TLR7 (Homo sapiens, UniProt Q9NYK1)
T1 construct: host or cells: HEK293 (HEK-Blue hTLR7)
T1 sequence (Q9NYK1 27-1049): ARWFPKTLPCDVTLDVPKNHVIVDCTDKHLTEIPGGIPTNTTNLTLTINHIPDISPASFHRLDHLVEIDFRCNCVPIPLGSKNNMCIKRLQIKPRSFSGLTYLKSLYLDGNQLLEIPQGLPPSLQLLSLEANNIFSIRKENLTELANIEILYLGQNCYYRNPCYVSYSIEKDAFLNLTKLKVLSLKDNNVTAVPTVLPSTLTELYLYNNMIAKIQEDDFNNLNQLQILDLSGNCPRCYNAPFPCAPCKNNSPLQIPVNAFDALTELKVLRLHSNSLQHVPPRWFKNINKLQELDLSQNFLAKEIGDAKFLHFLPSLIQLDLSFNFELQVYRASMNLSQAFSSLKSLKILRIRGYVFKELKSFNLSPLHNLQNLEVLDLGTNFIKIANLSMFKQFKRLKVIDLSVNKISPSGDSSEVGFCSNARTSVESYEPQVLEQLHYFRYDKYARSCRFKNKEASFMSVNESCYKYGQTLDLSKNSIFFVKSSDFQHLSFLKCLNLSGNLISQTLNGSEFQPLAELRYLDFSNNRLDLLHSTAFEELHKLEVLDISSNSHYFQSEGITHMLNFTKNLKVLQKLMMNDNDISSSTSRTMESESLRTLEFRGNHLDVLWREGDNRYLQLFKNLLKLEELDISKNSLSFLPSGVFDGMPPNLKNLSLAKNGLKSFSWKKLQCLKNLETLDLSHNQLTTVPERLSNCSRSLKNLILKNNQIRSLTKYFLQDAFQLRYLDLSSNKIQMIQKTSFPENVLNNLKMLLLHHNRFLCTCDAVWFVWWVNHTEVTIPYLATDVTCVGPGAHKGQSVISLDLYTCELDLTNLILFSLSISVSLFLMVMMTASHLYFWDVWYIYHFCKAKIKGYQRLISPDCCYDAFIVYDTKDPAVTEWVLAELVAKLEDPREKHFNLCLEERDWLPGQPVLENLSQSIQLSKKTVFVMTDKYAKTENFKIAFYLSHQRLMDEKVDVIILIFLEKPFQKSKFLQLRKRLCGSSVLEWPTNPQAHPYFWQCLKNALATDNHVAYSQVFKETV
Experiment: HEK293-Blue hTLR7 Reporter Assay (QUANTI-BLUE, SEAP readout)
Assay type: cell-based
Conditions: HEK-Blue-hTLR7 cells, 24 hrs treatment, Table 1, B1-B232
Method in brief: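 HEK-Blue-hTLR7 cells expressing NF-κB/AP-1-driven SEAP, 4×10^4 cells/well, treated 24 h at 37° C with increasing compound concentrations. Supernatant SEAP measured with Quanti-blue substrate (10-30 min, 37° C) at 620-655 nm; EC50 from sigmoidal dose-response fit.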

Row | SMILES | EC50
1 | CCC(CC)Nc1nc(N)c2ncc(Cc3cnc(N4CCC(CN(C)C)CC4)c(C)c3)n2n1 [Compound B208, 7-((6-(4-((dimethylamino)methyl)piperidin-1-yl)-5-methylpyridin-3-yl)methyl)-N2-(pentan-3-yl)imidazo[2,1-f][1,2,4]triazine-2,4-diamine] | 7.4 nM
2 | CCCCOc1nc(N)c2ncc(Cc3cnc(N4CCN(C(=O)CN(C)C(C)=O)CC4)c(C)c3)n2n1 [Compound B58, N-(2-(4-(5-((4-amino-2-butoxyimidazo[2,1-f][1,2,4]triazin-7-yl)methyl)-3-methylpyridin-2-yl)piperazin-1-yl)-2-oxoethyl)-N-methylacetamide] | 3250 nM
3 | CCCCNc1nc(N)c2ncc(Cc3cnc(N4CCN(C(=O)CN(C)C)CC4)c(C)c3)n2n1 [Compound B71, 1-(4-(5-((4-amino-2-(butylamino)imidazo[2,1-f][1,2,4]triazin-7-yl)methyl)-3-methylpyridin-2-yl)piperazin-1-yl)-2-(dimethylamino)ethan-1-one] | 31 nM
4 | CCCCOc1nc(N)c2ncc(Cc3cnc(N4CCC(CN5CCCC5)CC4)c(C)c3)n2n1 [Compound B121, 2-butoxy-7-((5-methyl-6-(4-(pyrrolidin-1-ylmethyl)piperidin-1-yl)pyridin-3-yl)methyl)imidazo[2,1-f][1,2,4]triazin-4-amine] | 31 nM
5 | CCC[C@@H](C)Oc1nc(N)c2ncc(Cc3cnc(N4CCC(CNC)CC4)c(C)c3)n2n1 (single isomer, unassigned) [Compound B222] | 60 nM
6 | CCCCOc1nc(N)c2ncc(Cc3ccc(C4CCNCC4)cn3)n2n1 [Compound B15, 2-butoxy-7-((5-(piperidin-4-yl)pyridin-2-yl)methyl)imidazo[2,1-f][1,2,4]triazin-4-amine] | 509 nM
7 | CCCC(CC)Oc1nc(N)c2ncc(Cc3cnc(N4CCC(N(C)C)CC4)c(C)c3)n2n1 (stereo not shown) [Compound B163, 7-((6-(4-(dimethylamino)piperidin-1-yl)-5-methylpyridin-3-yl)methyl)-2-(hexan-3-yloxy)imidazo[2,1-f][1,2,4]triazin-4-amine] | 2.5 nM
8 | CCCCOc1nc(N)c2ncc(Cc3cnc(N4CCN(CC)CC4)c(C)c3)n2n1 [Compound B114, 2-butoxy-7-((6-(4-ethylpiperazin-1-yl)-5-methylpyridin-3-yl)methyl)imidazo[2,1-f][1,2,4]triazin-4-amine] | 168 nM
9 | CCC(CC)Nc1nc(N)c2ncc(Cc3cnc(N4CCN(C(=O)CNC)CC4)c(C)c3)n2n1 [Compound B175, 1-(4-(5-((4-amino-2-(pentan-3-ylamino)imidazo[2,1-f][1,2,4]triazin-7-yl)methyl)-3-methylpyridin-2-yl)piperazin-1-yl)-2-(methylamino)ethan-1-one] | 3.3 nM
10 | CCCCOc1nc(N)c2ncc(Cc3cnc(N4CCNCC4)c(Cl)c3)n2n1 [Compound B2, 2-butoxy-7-((5-chloro-6-(piperazin-1-yl)pyridin-3-yl)methyl)imidazo[2,1-f][1,2,4]triazin-4-amine] | 434 nM
11 | CCC[C@@H](C)Oc1nc(N)c2ncc(Cc3cnc(N4CCN(C(=O)CN(C)C)CC4)c(C)c3)n2n1 [Compound B124, (R)-1-(4-(5-((4-amino-2-(pentan-2-yloxy)imidazo[2,1-f][1,2,4]triazin-7-yl)methyl)-3-methylpyridin-2-yl)piperazin-1-yl)-2-(dimethylamino)ethan-1-one] | 51 nM
12 | Cc1cc(Cc2cnc3c(N)nc(OCCn4ccnc4)nn23)cnc1N1CCNCC1 [Compound B42, 2-(2-(1H-imidazol-1-yl)ethoxy)-7-((5-methyl-6-(piperazin-1-yl)pyridin-3-yl)methyl)imidazo[2,1-f][1,2,4]triazin-4-amine] | > 10000 nM
13 | CCOc1nc(N)c2ncc(Cc3cnc(N4CCNCC4)c(C)c3)n2n1 [Compound B63, 2-ethoxy-7-((5-methyl-6-(piperazin-1-yl)pyridin-3-yl)methyl)imidazo[2,1-f][1,2,4]triazin-4-amine] | 900 nM
